Measured values from US20050287225A1, “Metal cluster nano-compounds for treating tumor diseases” (priority 2002, published 2005).

Key:
BLM metastatic melanoma = test: In-vitro cytotoxicity MTT assay (Example 4); assay type: cell-based, human; settings: 72 h, read-out: IC50 cisplatin 72 h
Protocol: (§1) The in-vitro cytotoxicity was studied by means of the MTT assay (Promega), a colorimetric method in which a tetrazolium-based compound is reduced by living cells to give formazan. The amount of formazan formed is directly proportional to the number of living cells in the culture. Each cell line was incubated in microliter dishes for 48 hours before adding the medicaments. Cisplatin or Au55 was added, followed by an incubation for 72 or 24 hours. Subsequently, the MTT assays were carried out following Promega's information.
(§2) Table 2 below depicts the inhibitory concentrations of cisplatin and [Au55] incubations with various cell lines over 72 and 24 hours, respectively. The IC50 data were calculated from the graphs obtained from the in vitro cytotoxicity assays MTT. Each experiment was repeated three times independently from one another by way of determination in triplicate.

MV3 metastatic melanoma = test: In-vitro cytotoxicity MTT assay (Example 4); assay type: cell-based, human; settings: 72 h, read-out: IC50 cisplatin 72 h
Protocol: as §1, §2

[1] = system: HeLa cervical cancer cells; test: In-vitro cytotoxicity MTT assay (Example 4); assay type: cell-based, human; settings: 72 h, read-out: IC50 cisplatin 72 h
Protocol: as §1, §2

[2] = system: MOR/P lung cancer cells, cisplatin-sensitive; test: In-vitro cytotoxicity MTT assay (Example 4); assay type: cell-based, human; settings: 72 h
Protocol: as §1, §2

U205 osteosarcoma = test: In-vitro cytotoxicity MTT assay (Example 4); assay type: cell-based, human; settings: 72 h, read-out: IC50 cisplatin 72 h
Protocol: as §1, §2

[3] = In-vitro cytotoxicity MTT assay (Example 4); assay type: cell-based, human; settings: Hek, 72 h; read-out: IC50 cisplatin 72 h
Protocol: as §1, §2

MC3 normal bone cells = test: In-vitro cytotoxicity MTT assay (Example 4); assay type: cell-based; settings: 72 h, read-out: IC50 cisplatin 72 h
Protocol: as §1, §2

[4] = system: MOR/CPR lung cancer cells, cisplatin-resistant; test: In-vitro cytotoxicity MTT assay (Example 4); assay type: cell-based, human
Protocol: as §1
Diagram 4 relates to in-vitro cytotoxicity assays on cisplatin-resistant MOR/CPR lung tumor cells, incubated with different concentrations of Au55(Ph2PC6H4SO3H)12Cl6 [Au55] for 24 hours. Each point represents 3 experiments carried out independently of one another and repeated in each case three times.
Diagramm 5 relates to in-vitro cytotoxicity assays on cisplatin-resistant MOR/CPR lung tumor cells incubated with different concentrations of free ligand, Ph2PC6H4SO3H, for 24 hours. Each point represents 3 independent experiments repeated in each case in triplicate.
Table 2 below depicts the inhibitory concentrations of cisplatin and [Au55] incubations with various cell lines over 72 and 24 hours, respectively. The IC50 data were calculated from the graphs obtained from the in vitro cytotoxicity assays MTT. […]

[5] = system: MOR/CPR lung cancer cells (cisplatin-resistant); test: In-vitro cell toxicity, MTT colorimetry assay (Example 2); assay type: cell-based, human; settings: comparison value, incubation not stated
Protocol: (§3) The in-vitro cytotoxicity properties of the gold-55 particles (Au55) prepared in example 1. C) were carried out on HeLa cancer cells and on MOR/P and MOR/CPR lung cancer cells. MOR/P cells are sensitive to cisplatin, while MOR/CPR cells are resistant to cisplatin.
(§4) The HeLa cells were grown on a DMEM medium at 37° C. in a 5% CO2 atmosphere. The medium had been supplemented with 10% strength FCS serum and antibiotics. Daughter cultures were generated twice weekly. The MOR/P and MOR/CPR cells were grown on an RPMI 1640 medium at 37° C. in a 5% CO2 atmosphere. Said medium had likewise been supplemented with 10% strength FCS serum and antibiotics. Here too, daughter cultures were generated twice weekly.
(§5) The in-vitro cytotoxicity of the Au55 particles was determined in the following manner using 96-well microtiter plates and an MTT colorimetry assay (CellTiter 96® Aqueous One Solution Cell Proliferation Assay, Promega):
(§6) Cultures of each cell line were applied at a concentration of 1—10^5 cells/ml to the microtiter plates and grown in the above-described media at 37° C. in a 5% CO2 atmosphere for 72 hours. […]
(§7) Absorption at 490 nm was measured for each well of each microtiter plate by using a 96-well microtiter plate reader. The absorption measured at 490 nm was plotted as a function of the Au55 particle concentration and the IC50 value was determined.

[6] = system: MOR/P lung cancer cells (cisplatin-sensitive); test: as above; assay type: cell-based, human; settings: comparison value, incubation not stated
Protocol: as §3, §4, §5, §6, §7

For N.N.[Cl][Pt][Cl] [cisplatin, cis-diaminodichloroplatinum(II)], the IC50 (BLM metastatic melanoma) was 54.7 ± 7.6 µM, the IC50 (MV3 metastatic melanoma) was > 50 µM and the IC50 [1] was 7.93 ± 0.95 µM. For the same compound, the IC50 [2] was 3.3 ± 0.3 µM, the IC50 (U205 osteosarcoma) was 11.2 ± 2.02 µM and the IC50 [3] was 20.1 ± 6 µM. For the same compound, the IC50 (MC3 normal bone cells) was 26.1 ± 1.27 µM, the IC50 ([4]; 72 h) was 7.1 ± 1.2 µM and the IC50 [5] was 7.1 ± 1.2 µM. It also gave an IC50 [6] of 3.3 ± 0.3 µM.
With O=S(=O)(O)c1cccc(P(c2ccccc2)c2ccccc2)c1 [ligand molecules, Ph2PC6H4SO3H] the “Influence of the ligand molecules themselves on the life span of the cells” value ([4]; different concentrations of free ligand, 24 hours) was “cannot be detected”.
